Test system: human platelets
Assay: U46619-induced human platelet aggregation ex vivo in platelet rich plasma
Type: cell-based
Conditions: fold less potent than TP20
From the text: A modification of the turbidimetric method originally developed by Born & Cross (Born, G. V. and Cross, M. J., The Aggregation of Blood Platelets, J Physiol, 1963, 168:178-95) is used. The principle is based on the diffraction of the light by particles. When a light beam passes through a suspension of particles, it is diffracted, depending on the number and the size of the particles in suspension.
In the Born & Cross method, a light beam passes through a platelet suspension and the quantity of light is measured by a detector placed after the sample. Upon platelet aggregation, the size of platelet aggregates will increase while the total number of free platelets will decrease. Consequently, less light will be diffracted and the detector will record an increase in light intensity. The aggregometer has been developed based on these concepts. Variations in light transmission recorded by this device reflects the platelet physiology. When an agonist of platelet aggregation is added to a platelet suspension, platelets undergo activation and shape change. […]
Light transmission (T) is measured throughout all the experiment, which is ended 8 minutes after induction of aggregation. Maximal light transmission (Tmax) is determined in the sample without drugs. Minimal light transmission (Tmin) is measured in PRP without inducer. […]

Question: `COc1ccc(-c2cccc(Oc3ccc(C#N)cc3S(=O)(=O)NC(=O)NC(C)(C)C)c2)cc1` [NTP4, N-(tert-butylcarbamoyl)-5-cyano-2-((4′-methoxy-[1,1′-biphenyl]-3-yl)oxy)benzenesulfonamide] was tested. Which “Potency relative to TP20, inhibition of U46619-mediated platelet aggregation” value did it give?
Answer: The value was “approx. ten-fold”.

From US9738599B2, “Thromboxane receptor antagonists” (UNIVERSITY COLLEGE DUBLIN, NATIONAL UNIVERSITY OF IRELAND, …, priority 2012, dated 2017)
